Laboratory results as given in US12077503B2, “Substituted cyclic amides and their use as herbicides” (FMC CORPORATION, priority 2015, dated 2024).

What was measured:
Format in all cases: in vivo
[1] = tested on: corn (Zea mays); assay: Test A postemergence; conditions: Zea mays, post-emergence, 240 h
How it was run: (§1)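 Visual injury scores from 0, no effect, to 100, complete control, were assigned versus untreated controls roughly 10 d after treatment in the greenhouse. Test chemicals, formulated with surfactant in a non-phytotoxic solvent, were applied to planted seeds as a preemergence soil spray or postemergence to one- to two-leaf plants 2 to 10 cm tall, in loam–sand soil.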

[2] = tested on: barnyardgrass (Echinochloa crus-galli); assay: Test A postemergence; conditions: Echinochloa crus-galli, post-emergence, 240 h
How it was run: as §1

[3] = tested on: Kochia (Kochia scoparia); assay: Test A postemergence; conditions: Bassia scoparia, post-emergence, 240 h
How it was run: as §1

[4] = tested on: blackgrass (Alopecurus myosuroides); assay: Test A postemergence; conditions: Alopecurus myosuroides, post-emergence, 240 h
How it was run: as §1

[5] = tested on: wheat (Triticum aestivum); assay: Test A postemergence; conditions: Triticum aestivum, post-emergence, 240 h
How it was run: as §1

[6] = tested on: giant foxtail (Setaria faberii); assay: Test A postemergence; conditions: Setaria faberi, post-emergence, 240 h
How it was run: as §1

[7] = tested on: pigweed (Amaranthus retroflexus); assay: Test A postemergence; conditions: Amaranthus retroflexus, post-emergence, 240 h
How it was run: as §1

[8] = tested on: ragweed (common ragweed, Ambrosia elatior); assay: Test A postemergence; conditions: Ambrosia artemisiifolia, post-emergence, 240 h
How it was run: as §1

[9] = tested on: ryegrass, Italian (Italian ryegrass, Lolium multiflorum); assay: Test A postemergence; conditions: Lolium multiflorum, post-emergence, 240 h
How it was run: as §1

[10] = tested on: Galium (catchweed bedstraw, Galium aparine); assay: Test A postemergence; conditions: Galium, post-emergence, 240 h
How it was run: as §1

[11] = tested on: sedge, umbrella (small-flower umbrella sedge, Cyperus difformis); assay: Test B flooded paddy test; conditions: Cyperus difformis, 250 g ai/ha, Flood; 0 to 100 scale where 0 is no effect and 100 is complete control; read-out: Sedge, Umbrella plant response rating
How it was run: (§2)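 Rating scale 0–100 (visual, vs untreated controls) after a 13–15 d greenhouse period; application to the flood layer, 3 cm above soil and maintained; plants at 2-leaf stage when treated.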

[12] = tested on: barnyardgrass (Echinochloa crus-galli); assay: Test B flooded paddy test; conditions: Echinochloa crus-galli, 250 g ai/ha, Flood; 0 to 100 scale where 0 is no effect and 100 is complete control; read-out: Barnyardgrass plant response rating
How it was run: as §2

[13] = tested on: ducksalad (Heteranthera limosa); assay: Test B flooded paddy test; conditions: Heteranthera limosa, 250 g ai/ha, Flood; 0 to 100 scale where 0 is no effect and 100 is complete control; read-out: Ducksalad plant response rating
How it was run: as §2

[14] = tested on: rice (Oryra sativa); assay: Test B flooded paddy test; conditions: Oryza sativa, 250 g ai/ha, Flood; 0 to 100 scale where 0 is no effect and 100 is complete control; read-out: Rice plant response rating
How it was run: as §2

[15] = tested on: barnyardgrass (Echinochloa crus-galli); assay: Test A preemergence; conditions: Echinochloa crus-galli, pre-emergence, 240 h, 0 to 100 scale where 0 is no effect and 100 is complete control, read-out: Barnyardgrass plant response rating
How it was run: as §1

[16] = tested on: Kochia (Kochia scoparia); assay: Test A preemergence; conditions: Bassia scoparia, pre-emergence, 240 h, 0 to 100 scale where 0 is no effect and 100 is complete control, read-out: Kochia plant response rating
How it was run: as §1

[17] = tested on: giant foxtail (Setaria faberii); assay: Test A preemergence; conditions: Setaria faberi, pre-emergence, 240 h, 0 to 100 scale where 0 is no effect and 100 is complete control, read-out: Foxtail, Giant plant response rating
How it was run: as §1

[18] = tested on: pigweed (Amaranthus retroflexus); assay: Test A preemergence; conditions: Amaranthus retroflexus, pre-emergence, 240 h, 0 to 100 scale where 0 is no effect and 100 is complete control, read-out: Pigweed plant response rating
[19] = tested on: ragweed (common ragweed, Ambrosia elatior); assay: Test A preemergence; conditions: Ambrosia artemisiifolia, pre-emergence, 240 h, 0 to 100 scale where 0 is no effect and 100 is complete control, read-out: Ragweed plant response rating
How it was run: as §1

[20] = tested on: ryegrass, Italian (Italian ryegrass, Lolium multiflorum); assay: Test A preemergence; conditions: Lolium multiflorum, pre-emergence, 240 h, 0 to 100 scale where 0 is no effect and 100 is complete control, read-out: Ryegrass, Italian plant response rating
How it was run: as §1

[21] = 125 g ai/ha, preemergence, approx. 10 d

COCOCc1ccccc1NC(=O)[C@H]1C(=O)N(C)C[C@@H]1c1cccc(C(F)(F)F)c1 (racemic) [Compound 1161]
15%: pest or weed control at 250 g/ha [14]
0%: plant injury at 125 g/ha ([1]; 125 g ai/ha, postemergence, visual injury vs untreated controls after approx. 10 d, 0 = no effect, 100 = complete control, read-out: Corn plant response rating (0 to 100 scale)) | Corn plant response rating (crop injury, 0 = no effect, 100 = complete kill) at 31 g/ha ([1]; Postemergence, 31 g ai/ha, visual injury after approx. 10 d, 0 to 100 scale, 0 no effect, 100 complete control) | pest or weed control at 125 g/ha ([2]; 125 g ai/ha, postemergence, visual injury vs untreated controls after approx. 10 d, 0 = no effect, 100 = complete control, read-out: Barnyardgrass plant response rating (0 to 100 scale)) | pest or weed control at 31 g/ha ([2]; Postemergence, 31 g ai/ha, visual injury after approx. 10 d, 0 to 100 scale, 0 no effect, 100 complete control, read-out: Plant response rating, Barnyardgrass) | pest or weed control at 125 g/ha ([3]; 125 g ai/ha, postemergence, visual injury vs untreated controls after approx. 10 d, 0 = no effect, 100 = complete control, read-out: Kochia plant response rating (0 to 100 scale)) | pest or weed control at 31 g/ha ([3]; Postemergence, 31 g ai/ha, visual injury after approx. 10 d, 0 to 100 scale, 0 no effect, 100 complete control, read-out: Plant response rating, Kochia) | pest or weed control at 125 g/ha ([4]; 125 g ai/ha, postemergence, visual injury vs untreated controls after approx. 10 d, 0 = no effect, 100 = complete control, read-out: Blackgrass plant response rating (0 to 100 scale)) | pest or weed control at 31 g/ha ([4]; Postemergence, 31 g ai/ha, visual injury after approx. 10 d, 0 to 100 scale, 0 no effect, 100 complete control, read-out: Plant response rating, Blackgrass) | plant injury at 125 g/ha ([5]; 125 g ai/ha, postemergence, visual injury vs untreated controls after approx. 10 d, 0 = no effect, 100 = complete control, read-out: Wheat plant response rating (0 to 100 scale)) | plant injury at 31 g/ha ([5]; Postemergence, 31 g ai/ha, visual injury after approx. 10 d, 0 to 100 scale, 0 no effect, 100 complete control, read-out: Plant response rating, Wheat) | pest or weed control at 125 g/ha ([6]; 125 g ai/ha, postemergence, visual injury vs untreated controls after approx. 10 d, 0 = no effect, 100 = complete control, read-out: Foxtail, Giant plant response rating (0 to 100 scale)) | pest or weed control at 31 g/ha ([6]; Postemergence, 31 g ai/ha, visual injury after approx. 10 d, 0 to 100 scale, 0 no effect, 100 complete control, read-out: Plant response rating, Foxtail, Giant) | pest or weed control at 125 g/ha ([7]; 125 g ai/ha, postemergence, visual injury vs untreated controls after approx. 10 d, 0 = no effect, 100 = complete control, read-out: Pigweed plant response rating (0 to 100 scale)) | pest or weed control at 31 g/ha ([7]; Postemergence, 31 g ai/ha, visual injury after approx. 10 d, 0 to 100 scale, 0 no effect, 100 complete control, read-out: Plant response rating, Pigweed) | pest or weed control at 125 g/ha ([8]; 125 g ai/ha, postemergence, visual injury vs untreated controls after approx. 10 d, 0 = no effect, 100 = complete control, read-out: Ragweed plant response rating (0 to 100 scale)) | pest or weed control at 31 g/ha ([8]; Postemergence, 31 g ai/ha, visual injury after approx. 10 d, 0 to 100 scale, 0 no effect, 100 complete control, read-out: Plant response rating, Ragweed) | pest or weed control at 125 g/ha ([9]; 125 g ai/ha, postemergence, visual injury vs untreated controls after approx. 10 d, 0 = no effect, 100 = complete control, read-out: Ryegrass, Italian plant response rating (0 to 100 scale)) | pest or weed control at 31 g/ha ([9]; Postemergence, 31 g ai/ha, visual injury after approx. 10 d, 0 to 100 scale, 0 no effect, 100 complete control, read-out: Plant response rating, Ryegrass, Italian) | pest or weed control at 125 g/ha ([10]; 125 g ai/ha, postemergence, visual injury vs untreated controls after approx. 10 d, 0 = no effect, 100 = complete control, read-out: Galium plant response rating (0 to 100 scale)) | pest or weed control at 31 g/ha ([10]; Postemergence, 31 g ai/ha, visual injury after approx. 10 d, 0 to 100 scale, 0 no effect, 100 complete control, read-out: Plant response rating, Galium) | pest or weed control at 250 g/ha [11] | pest or weed control at 250 g/ha [12] | pest or weed control at 250 g/ha [13] | pest or weed control at 31 g/ha ([15]; 31 g ai/ha, Preemergence) | pest or weed control at 125 g/ha [15, 21] | pest or weed control at 31 g/ha ([16]; 31 g ai/ha, Preemergence) | pest or weed control at 125 g/ha [16, 21] | pest or weed control at 31 g/ha ([17]; 31 g ai/ha, Preemergence) | pest or weed control at 31 g/ha ([18]; 31 g ai/ha, Preemergence) | pest or weed control at 125 g/ha [18, 21] | pest or weed control at 31 g/ha ([19]; 31 g ai/ha, Preemergence) | pest or weed control at 125 g/ha [19, 21] | pest or weed control at 31 g/ha ([20]; 31 g ai/ha, Preemergence) | pest or weed control at 125 g/ha [20, 21]
20%: pest or weed control at 125 g/ha [17, 21]
